Laboratory results reported in article PMC11291634 (Scientific Reports, 2024).

Target: carboxylesterase Ha006a
Assay: ITC with purified protein, one-site model, […] °C
Assay type: binding, Helicoverpa armigera

CCNc1nc(Cl)nc(NC(C)C)n1 [ATZ, atrazine]
Kd: 57 µM
